The experiment relates to Mus musculus. Put plainly: In vivo inhibition of CatC in C57BL/6 mouse blood at 20 mg/kg, po single dose using Gly-Phe-AFC as substrate measured 15 mins post dose for up to 90 mins by fluorescence assay relative to control. Particulars: C57BL/6, Blood.

The inhibition in vivo is the relative decrease from the control value, in per cent. Read a high inhibition in vivo as a response far below the control. The compound `C=CC(=O)Nc1cc(Oc2nc(Nc3ccc(N4CCN(C)CC4)cc3OC)ccc2N2CCCCC2)ccc1C` returned an inhibition in vivo at 20 mg/kg of 75%.

The record behind these values is ChEMBL document CHEMBL4396895, “Identification and Optimization of Novel Cathepsin C Inhibitors Derived from EGFR Inhibitors” (J Med Chem, 2019).
